Results: patent US10493077B2, “Fused imidazo-piperidine JAK inhibitor compound” (THERAVANCE BIOPHARMA R&D IP, LLC, priority 2017, dated 2019)
pIC50: −log10 of the molar value. Read-outs that look alike come from different tables or passages of the source.

Experiments:
[1] = test system: IL-13 induced STAT6 phosphorylation in BEAS-2B human lung epithelial cells; experiment: Cellular JAK potency assay: inhibition of IL-13 (AlphaScreen, BEAS-2B); assay type: cell-based
Description: The AlphaScreen JAK1 cellular potency assay was carried out by measuring interleukin-13 (IL-13, R&D Systems) induced STAT6 phosphorylation in BEAS-2B human lung epithelial cells (ATCC). The anti-STAT6 antibody (Cell Signaling Technologies) was conjugated to AlphaScreen acceptor beads (Perkin Elmer), while the anti-pSTAT6 (pTyr641) antibody (Cell Signaling Technologies) was biotinylated using EZ-Link Sulfo-NHS-Biotin (Thermo Scientific).
BEAS-2B cells were grown at 37° C. in a 5% CO2 humidified incubator in 50% DMEM/50% F-12 medium (Life Technologies) supplemented with 10% FBS (Hyclone), 100 U/mL penicillin, 100 μg/mL streptomycin (Life Technologies), and 2 mM GlutaMAX (Life Technologies). On day 1 of the assay, cells were seeded at a 7,500 cells/well density in white poly-D-lysine-coated 384-well plates (Corning) with 25 μL medium, and were allowed to adhere overnight in the incubator. […] After a minimum of 2 h incubation, the assay plates were read on the EnVision plate reader. AlphaScreen luminescence signals were recorded and utilized to calculate the percent inhibition values based on DMSO and background controls.
For dose-response analysis, percent inhibition data were plotted vs. compound concentrations, and IC50 values were determined from a 4-parameter robust fit model with the Prism software. Results may also be expressed as the negative logarithm of the IC50 value, pIC50.

JAK3 = molecular target: T1, JAK3 (Homo sapiens, UniProt P52333); experiment: LanthaScreen JAK biochemical assay, JAK3; settings: read-out: JAK 3 pKi (converted)
T1 construct: GST; purchased Life Technologies
T1 sequence (P52333 whole entry): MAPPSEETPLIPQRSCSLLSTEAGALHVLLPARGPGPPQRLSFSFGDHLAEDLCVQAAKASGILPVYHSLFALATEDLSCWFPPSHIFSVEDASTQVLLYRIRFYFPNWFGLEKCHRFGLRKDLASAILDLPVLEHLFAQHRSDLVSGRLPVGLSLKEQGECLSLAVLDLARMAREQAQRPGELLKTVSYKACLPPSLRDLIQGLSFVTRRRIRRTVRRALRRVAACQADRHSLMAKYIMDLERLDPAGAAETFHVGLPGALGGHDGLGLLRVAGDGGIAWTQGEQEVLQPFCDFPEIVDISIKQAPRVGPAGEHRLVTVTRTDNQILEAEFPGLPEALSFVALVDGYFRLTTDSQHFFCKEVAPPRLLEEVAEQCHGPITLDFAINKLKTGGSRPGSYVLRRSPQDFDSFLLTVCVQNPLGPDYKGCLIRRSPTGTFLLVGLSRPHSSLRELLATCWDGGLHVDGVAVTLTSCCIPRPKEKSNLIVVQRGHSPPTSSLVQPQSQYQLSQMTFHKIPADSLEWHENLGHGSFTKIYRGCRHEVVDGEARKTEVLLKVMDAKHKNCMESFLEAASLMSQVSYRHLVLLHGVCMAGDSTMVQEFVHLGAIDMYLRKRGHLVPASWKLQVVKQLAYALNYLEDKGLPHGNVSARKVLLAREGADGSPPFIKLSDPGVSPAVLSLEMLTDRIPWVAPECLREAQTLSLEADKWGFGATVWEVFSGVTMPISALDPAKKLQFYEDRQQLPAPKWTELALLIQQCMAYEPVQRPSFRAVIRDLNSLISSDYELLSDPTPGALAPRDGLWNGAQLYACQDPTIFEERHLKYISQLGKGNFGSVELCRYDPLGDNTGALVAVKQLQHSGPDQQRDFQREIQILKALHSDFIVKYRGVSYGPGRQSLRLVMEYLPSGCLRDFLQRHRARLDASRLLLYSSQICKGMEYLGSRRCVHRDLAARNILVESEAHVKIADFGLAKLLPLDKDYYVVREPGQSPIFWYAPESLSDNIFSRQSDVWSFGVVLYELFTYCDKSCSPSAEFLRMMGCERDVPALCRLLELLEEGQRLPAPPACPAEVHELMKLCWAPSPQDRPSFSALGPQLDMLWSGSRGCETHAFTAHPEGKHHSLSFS
Description: A panel of four LanthaScreen JAK biochemical assays (JAK1, 2, 3 and Tyk2) were carried in a common kinase reaction buffer (50 mM HEPES, pH 7.5, 0.01% Brij-35, 10 mM MgCl2, and 1 mM EGTA). Recombinant GST-tagged JAK enzymes and a GFP-tagged STAT1 peptide substrate were obtained from Life Technologies.
Serially diluted compound was pre-incubated with each of the four JAK enzymes and the substrate in white 384-well microplates (Corning) at ambient temperature for 1 h. ATP was subsequently added to initiate the kinase reactions in 10 μL total volume, with 1% DMSO. […] The plates were allowed to incubate at ambient temperature for 1 h before being read on the EnVision reader (Perkin Elmer). Emission ratio signals (520 nm/495 nm) were recorded and utilized to calculate the percent inhibition values based on DMSO and background controls.
For dose-response analysis, percent inhibition data were plotted vs. compound concentrations, and IC50 values were determined from a 4-parameter robust fit model with the Prism software (GraphPad Software). Results were expressed as pIC50 (negative logarithm of IC50) and subsequently converted to pKi (negative logarithm of dissociation constant, Ki) using the Cheng-Prusoff equation.

[2] = test system: IL-6, IL-2, and IFNγ signaling; experiment: Cellular assays of Assays 3 to 6 (summary statement); assay type: cell-based; settings: Homo sapiens, cellular assays described in Assays 3 to 6
Description: (§1) The potency of the test compound for inhibition of interleukin-2 (IL-2)/anti-CD3 stimulated interferon gamma (IFNγ) was measured in human peripheral blood mononuclear cells (PBMCs) isolated from human whole blood (Stanford Blood Center). Because IL-2 signals through JAK, this assay provides a measure of JAK cellular potency.
as §1, with “STAT5 phosphorylation” for “interferon gamma (IFNγ)”, “measured in CD4-positive (CD4+) T cells” for “measured”, “Center) using flow cytometry.” for “Center).”
The potency of the test compound for inhibition of interleukin-6 (IL-6) stimulated CCL2 (MCP-1) production was measured in human peripheral blood mononuclear cells (PBMCs) isolated from human whole blood (Stanford Blood Center). Because IL-6 signals through JAK, this assay provides a distal measure of JAK cellular potency.
The potency of the test compound for inhibition of interferon gamma (IFNγ) stimulated STAT1 phosphorylation was measured in CD14-positive (CD14+) monocytes derived from human whole blood (Stanford Blood Center) using flow cytometry. Because IFNγ signals through JAK, this assay provides a measure of JAK cellular potency.

Work on `CCc1cc(O)c(F)cc1-c1cc(F)c2c(-c3nc4c([nH]3)CCN(C(=O)CN3CCOCC3)C4)n[nH]c2c1` [Compound 1, 1-(2-(6-(2-ethyl-5-fluoro-4-hydroxyphenyl)-4-fluoro-1H-indazol-3-yl)-1,4,6,7-tetrahydro-5H-imidazo[4,5-c]pyridin-5-yl)-2-morpholinoethan-1-one] yielded a pIC50 ([1]; Assay 2, BEAS-2B cells, read-out: IC50 for inhibition of IL-13) of 7.89, an IC50 ([1]; BEAS-2B cells, read-out: pIC50, inhibition of IL-13 induced STAT6 phosphorylation (converted)) of 0.0126 µM and a Ki (JAK3) of 0.0002 µM. The pIC50 ([2]; read-out: IC50 for inhibition of IL-6, IL-2, and IFNγ signaling) was ≥ 6.40 and the IC50 ([2]; read-out: pIC50 for inhibition of IL-6, IL-2, and IFNγ signaling (converted)) was ≤ 0.398 µM.
